Results published in PubChem BioAssay AID1963835 (Molecular Pharmacology Branch, DTP, NCI, 2024).

Test system: 699152-130-R-J1-PDC complex spheroid viability
Test: Anticancer human tumor 699152-130-R-J1-PDC patient-derived pancreatic carcinoma cell line growth inhibition [POLQ]
Conditions: for IC50: curve of first compound; for viability, T/C: stronger effect = lower value
In short: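 Growth inhibition in 3D: complex spheroids (tumor PDC, HUVEC, MSC) treated with POLQ inhibitor combinations; where Cmax unknown, highest tested concentration 10 microM, except SN-38 at 1 microM.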

[1] = second compound 0.0316 µM, first compound 0.0316 µM
[2] = second compound 0.0316 µM, first compound 0.1 µM
[3] = second compound 0.0316 µM, first compound 0.316 µM
[4] = second compound 0.0316 µM, first compound 1 µM
[5] = second compound 0.0316 µM, first compound 3.16 µM
[6] = second compound 0.0316 µM, first compound 10 µM
[7] = second compound 0.1 µM, first compound 0.0316 µM
[8] = second compound 0.1 µM, first compound 0.1 µM
[9] = second compound 0.1 µM, first compound 0.316 µM
[10] = second compound 0.1 µM, first compound 1 µM
[11] = second compound 0.1 µM, first compound 3.16 µM
[12] = second compound 0.1 µM, first compound 10 µM
[13] = second compound 0.316 µM, first compound 0.0316 µM
[14] = second compound 0.316 µM, first compound 0.1 µM
[15] = second compound 0.316 µM, first compound 0.316 µM
[16] = second compound 0.316 µM, first compound 1 µM
[17] = second compound 0.316 µM, first compound 3.16 µM
[18] = second compound 0.316 µM, first compound 10 µM
[19] = second compound 1 µM, first compound 0.0316 µM
[20] = second compound 1 µM, first compound 0.1 µM
[21] = second compound 1 µM, first compound 0.316 µM
[22] = second compound 1 µM, first compound 1 µM
[23] = second compound 1 µM, first compound 3.16 µM
[24] = second compound 1 µM, first compound 10 µM
[25] = second compound 3.16 µM, first compound 0.0316 µM
[26] = second compound 3.16 µM, first compound 0.1 µM
[27] = second compound 3.16 µM, first compound 0.316 µM
[28] = second compound 3.16 µM, first compound 1 µM
[29] = second compound 3.16 µM, first compound 3.16 µM
[30] = second compound 3.16 µM, first compound 10 µM
[31] = second compound 10 µM, first compound 0.0316 µM
[32] = second compound 10 µM, first compound 0.1 µM
[33] = second compound 10 µM, first compound 0.316 µM
[34] = second compound 10 µM, first compound 1 µM
[35] = second compound 10 µM, first compound 3.16 µM
[36] = second compound 10 µM, first compound 10 µM
[37] = second compound 0.0316 µM, first compound 0.00316 µM
[38] = second compound 0.0316 µM, first compound 0.01 µM
[39] = second compound 0.1 µM, first compound 0.00316 µM
[40] = second compound 0.1 µM, first compound 0.01 µM
[41] = second compound 0.316 µM, first compound 0.00316 µM
[42] = second compound 0.316 µM, first compound 0.01 µM
[43] = second compound 1 µM, first compound 0.00316 µM
[44] = second compound 1 µM, first compound 0.01 µM
[45] = second compound 3.16 µM, first compound 0.00316 µM
[46] = second compound 3.16 µM, first compound 0.01 µM
[47] = second compound 10 µM, first compound 0.00316 µM
[48] = second compound 10 µM, first compound 0.01 µM
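Further: spheroids exposed to agents for 7 days before viability reading.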
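Wherever viability, T/C is given: percent of DMSO vehicle control viability so 100% = vehicle and 0% = no viable signal.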

Compound: CNCc1ccc(-c2[nH]c3cc(F)cc4c3c2CCNC4=O)cc1 + Cc1cccc(N(C)C(=O)C2C(O)CCN2c2nc(C)cc(C(F)(F)F)c2C#N)c1
- IC50 (second compound 0.0316 µM): > 10 µM
- IC50 (second compound 0.1 µM): > 10 µM
- IC50 (second compound 0.316 µM): > 10 µM
- IC50 (second compound 1 µM): > 10 µM
- IC50 (second compound 3.16 µM): > 10 µM
- IC50 (second compound 10 µM): > 10 µM
- viability, T/C [1]: 95.5%
- viability, T/C [2]: 88.8%
- viability, T/C [3]: 101%
- viability, T/C [4]: 95.3%
- viability, T/C [5]: 113%
- viability, T/C [6]: 126%
- viability, T/C [7]: 88.8%
- viability, T/C [8]: 106%
- viability, T/C [9]: 92.2%
- viability, T/C [10]: 103%
- viability, T/C [11]: 105%
- viability, T/C [12]: 119%
- viability, T/C [13]: 95.5%
- viability, T/C [14]: 94.2%
- viability, T/C [15]: 96.6%
- viability, T/C [16]: 111%
- viability, T/C [17]: 123%
- viability, T/C [18]: 114%
- viability, T/C [19]: 92.7%
- viability, T/C [20]: 86.9%
- viability, T/C [21]: 88.9%
- viability, T/C [22]: 94.8%
- viability, T/C [23]: 99.4%
- viability, T/C [24]: 127%
- viability, T/C [25]: 101%
- viability, T/C [26]: 87.7%
- viability, T/C [27]: 96.6%
- viability, T/C [28]: 98.1%
- viability, T/C [29]: 115%
- viability, T/C [30]: 122%
- viability, T/C [31]: 99.2%
- viability, T/C [32]: 101%
- viability, T/C [33]: 105%
- viability, T/C [34]: 97.9%
- viability, T/C [35]: 109%
- viability, T/C [36]: 116%

Compound: COc1cccc(OCCCN)c1-c1cc(Nc2cnc(C#N)cn2)n[nH]1 + Cc1cccc(N(C)C(=O)C2C(O)CCN2c2nc(C)cc(C(F)(F)F)c2C#N)c1
- IC50 (second compound 0.0316 µM): > 1 µM
- IC50 (second compound 0.1 µM): > 1 µM
- IC50 (second compound 0.316 µM): > 1 µM
- IC50 (second compound 1 µM): > 1 µM
- IC50 (second compound 3.16 µM): > 1 µM
- IC50 (second compound 10 µM): > 1 µM
- viability, T/C [37]: 93%
- viability, T/C [38]: 75.7%
- viability, T/C [1]: 64.7%
- viability, T/C [2]: 63.1%
- viability, T/C [3]: 50.8%
- viability, T/C [4]: 51.2%
- viability, T/C [39]: 89.4%
- viability, T/C [40]: 85.7%
- viability, T/C [7]: 67.4%
- viability, T/C [8]: 58.1%
- viability, T/C [9]: 55.5%
- viability, T/C [10]: 49.1%
- viability, T/C [41]: 100%
- viability, T/C [42]: 91.3%
- viability, T/C [13]: 61.5%
- viability, T/C [14]: 59.6%
- viability, T/C [15]: 54.5%
- viability, T/C [16]: 46.7%
- viability, T/C [43]: 92.8%
- viability, T/C [44]: 90.7%
- viability, T/C [19]: 61.2%
- viability, T/C [20]: 54.1%
- viability, T/C [21]: 52.8%
- viability, T/C [22]: 48.7%
- viability, T/C [45]: 86.3%
- viability, T/C [46]: 86.4%
- viability, T/C [25]: 67.2%
- viability, T/C [26]: 56.3%
- viability, T/C [27]: 51.2%
- viability, T/C [28]: 57.3%
- viability, T/C [47]: 98.1%
- viability, T/C [48]: 88%
- viability, T/C [31]: 61.6%
- viability, T/C [32]: 59%
- viability, T/C [33]: 58.4%
- viability, T/C [34]: 56.1%

Compound: Cn1ncnc1[C@H]1c2n[nH]c(=O)c3cc(F)cc(c23)N[C@@H]1c1ccc(F)cc1 + Cc1cccc(N(C)C(=O)C2C(O)CCN2c2nc(C)cc(C(F)(F)F)c2C#N)c1
- IC50 (second compound 0.0316 µM): > 0.1 µM
- IC50 (second compound 0.1 µM): > 0.1 µM
- IC50 (second compound 0.316 µM): > 0.1 µM
- IC50 (second compound 1 µM): > 0.1 µM
- IC50 (second compound 3.16 µM): > 0.1 µM
- IC50 (second compound 10 µM): > 0.1 µM
- viability, T/C (second compound 0.0316 µM, first compound 0.000316 µM): 103%
- viability, T/C (second compound 0.0316 µM, first compound 0.001 µM): 87.7%
- viability, T/C [37]: 95.1%
- viability, T/C [38]: 88.6%
- viability, T/C [1]: 99.4%
- viability, T/C [2]: 81%
- viability, T/C (second compound 0.1 µM, first compound 0.000316 µM): 100%
- viability, T/C (second compound 0.1 µM, first compound 0.001 µM): 100%
- viability, T/C [39]: 91.6%
- viability, T/C [40]: 99.3%
- viability, T/C [7]: 85.3%
- viability, T/C [8]: 86.6%
- viability, T/C (second compound 0.316 µM, first compound 0.000316 µM): 94.8%
- viability, T/C (second compound 0.316 µM, first compound 0.001 µM): 97.6%
- viability, T/C [41]: 86.4%
- viability, T/C [42]: 89.3%
- viability, T/C [13]: 117%
- viability, T/C [14]: 73.6%
- viability, T/C (second compound 1 µM, first compound 0.000316 µM): 100%
- viability, T/C (second compound 1 µM, first compound 0.001 µM): 89.6%
- viability, T/C [43]: 95%
- viability, T/C [44]: 87.2%
- viability, T/C [19]: 108%
- viability, T/C [20]: 87.2%
- viability, T/C (second compound 3.16 µM, first compound 0.000316 µM): 94.1%
- viability, T/C (second compound 3.16 µM, first compound 0.001 µM): 102%
- viability, T/C [45]: 93.8%
- viability, T/C [46]: 95.7%
- viability, T/C [25]: 93%
- viability, T/C [26]: 90.7%
- viability, T/C (second compound 10 µM, first compound 0.000316 µM): 104%
- viability, T/C (second compound 10 µM, first compound 0.001 µM): 81.8%
- viability, T/C [47]: 97.1%
- viability, T/C [48]: 88.5%
- viability, T/C [31]: 101%
- viability, T/C [32]: 83.5%

Compound: O=C(c1cc(Cc2n[nH]c(=O)c3ccccc23)ccc1F)N1CCN(C(=O)C2CC2)CC1 + Cc1cccc(N(C)C(=O)C2C(O)CCN2c2nc(C)cc(C(F)(F)F)c2C#N)c1
- IC50 (second compound 0.0316 µM): > 10 µM
- IC50 (second compound 0.1 µM): > 10 µM
- IC50 (second compound 0.316 µM): > 10 µM
- IC50 (second compound 1 µM): > 10 µM
- IC50 (second compound 3.16 µM): > 10 µM
- IC50 (second compound 10 µM): > 10 µM
- viability, T/C [1]: 91.2%
- viability, T/C [2]: 96.4%
- viability, T/C [3]: 82.7%
- viability, T/C [4]: 96.1%
- viability, T/C [5]: 104%
- viability, T/C [6]: 69.6%
- viability, T/C [7]: 94%
- viability, T/C [8]: 104%
- viability, T/C [9]: 93.1%
- viability, T/C [10]: 94.8%
- viability, T/C [11]: 99.5%
- viability, T/C [12]: 75.5%
- viability, T/C [13]: 88.3%
- viability, T/C [14]: 97.1%
- viability, T/C [15]: 97.3%
- viability, T/C [16]: 111%
- viability, T/C [17]: 107%
- viability, T/C [18]: 81%
- viability, T/C [19]: 103%
- viability, T/C [20]: 94.8%
- viability, T/C [21]: 92.4%
- viability, T/C [22]: 102%
- viability, T/C [23]: 87.3%
- viability, T/C [24]: 75.7%
- viability, T/C [25]: 101%
- viability, T/C [26]: 104%
- viability, T/C [27]: 91.1%
- viability, T/C [28]: 97.1%
- viability, T/C [29]: 92.6%
- viability, T/C [30]: 72%
- viability, T/C [31]: 94.6%
- viability, T/C [32]: 90.6%
- viability, T/C [33]: 105%
- viability, T/C [34]: 84.9%
- viability, T/C [35]: 99.1%
- viability, T/C [36]: 78.9%
